# Experimental data: patent US6737383B1, “Herbicidal oxadiazolidines” (priority 1999, dated 2004)
# How the values were obtained:
# [1] = test system: bamyardgrass; test: Test B flood test barnyardgrass; format: in vivo, Echinochloa crus-galli
# How it was run: (§1)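 Read-out is a visual response score from 0 (no effect) to 10 (complete control), assigned by comparison with untreated controls. Treatment was applied at the 2-leaf stage, and plants stayed in the greenhouse for twelve to sixteen days before scoring.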
# [2] = test system: wheat; test: Test B pre/postemergence wheat; format: in vivo, Triticum aestivum
# How it was run: (§2)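 Herbicidal effect was estimated by eye on a ten-point control scale after plants spent twelve to sixteen days in a greenhouse following soil or foliar treatment. Foliar sprays targeted plants at one to four leaves; all doses were formulated in a non-phytotoxic solvent with surfactant.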
# [3] = test system: velvetleaf; test: Test B pre/postemergence velvetleaf; format: in vivo, Abutilon theophrasti
# How it was run: as §2
# [4] = test system: cocklebur; test: Test B pre/postemergence cocklebur; format: in vivo, Xanthium strumarium
# How it was run: as §2
# [5] = test system: soybean; test: Test B pre/postemergence soybean; format: in vivo, Glycine max
# How it was run: as §2
# [6] = test system: wild oat; test: Test B pre/postemergence wild oat; format: in vivo, Avena fatua
# How it was run: as §2
# [7] = test system: corn; test: Test B pre/postemergence corn; format: in vivo, Zea mays
# How it was run: as §2
# [8] = test system: smallflower flatsedge; test: Test B flood test smallflower flatsedge; format: in vivo, Cyperus difformis
# How it was run: as §1
# [9] = test system: blackgrass; test: Test B pre/postemergence blackgrass; format: in vivo, Alopecurus myosuroides
# How it was run: as §2
# [10] = test system: crabgrass; test: Test B pre/postemergence crabgrass; format: in vivo, Digitaria sanguinalis
# How it was run: as §2
# [11] = test system: bedstraw; test: Test B pre/postemergence bedstraw; format: in vivo, Galium aparine; conditions: Postemergence
# How it was run: as §2
# [12] = test system: rape; test: Test B pre/postemergence rape; format: in vivo, Brassica napus
# How it was run: as §2
# [13] = test system: surinam grass; test: Test B pre/postemergence surinam grass; format: in vivo, Brachiaria decumbens
# How it was run: as §2
# [14] = test system: purple nutsedge; test: Test B pre/postemergence purple nutsedge; format: in vivo, Cyperus rotundus
# How it was run: as §2
# [15] = test system: pigweed; test: Test B pre/postemergence pigweed; format: in vivo, Amaranthus retroflexus
# How it was run: as §2
# [16] = test system: sugar beet; test: Test B pre/postemergence sugar beet; format: in vivo, Beta vulgaris
# How it was run: as §2
# [17] = Postemergence block (flood test species), Rate 250 g/ha, scale 0 to 10
# [18] = Postemergence section (flood test species), Rate 500 g/ha, scale of 0 to 10 where 0 is no effect and 10 is complete control
# [19] = Rate 125 g/ha, Postemergence section (flood test species), scale 0 to 10, 0 is no effect, 10 is complete control
# [20] = Postemergence, Rate 250 g/ha, scale 0 to 10
# [21] = Postemergence, Rate 500 g/ha, scale of 0 to 10 where 0 is no effect and 10 is complete control
# [22] = Preemergence, Rate 62 g/ha, scale 0 to 10 (0 no effect, 10 complete control)
# [23] = Preemergence, Rate 125 g/ha, scale of 0 to 10 where 0 is no effect and 10 is complete control
# [24] = Preemergence, Rate 250 g/ha, scale 0 to 10, 0 is no effect, 10 is complete control
# [25] = Preemergence, Rate 500 g/ha, scale 0 to 10, 0 is no effect, 10 is complete control
# [26] = Rate 125 g/ha, Postemergence, scale 0 to 10, 0 is no effect, 10 is complete control
# [27] = Rate 62 g/ha, Postemergence, scale of 0 to 10 where 0 is no effect and 10 is complete control
structure (smiles),measurement,setting,value
CC(C)N(C(=O)n1oc(=O)n(CC2=NOCCC2)c1=O)c1ccccc1 [Compound 430],Barnyardgrass plant response rating,[1]; [17],0
same,Barnyardgrass plant response rating,[1]; [18],0
same,Barnyardgrass plant response rating,"[1]; Rate 62 g/ha, Postemergence (flood test species), scale of 0 to 10 where 0 is no effect and 10 is complete control",0
same,Barnyardgrass plant response rating,[1]; [19],0
same,Wheat plant response rating,[2]; [20],0
same,Wheat plant response rating,[2]; [21],0
same,"Plant response rating, Wheat",[2]; [22],0
same,"Plant response rating, Wheat",[2]; [23],0
same,Wheat plant response rating,[2]; [24],0
same,Wheat plant response rating,[2]; [25],5
same,Wheat plant response rating,[2]; [26],0
same,Velvetleaf plant response rating,[3]; [20],0
same,Velvetleaf plant response rating,[3]; [21],3
same,"Plant response rating, Velvetleaf",[3]; [22],0
same,"Plant response rating, Velvetleaf",[3]; [23],2
same,Velvetleaf plant response rating,[3]; [24],4
same,Velvetleaf plant response rating,[3]; [25],7
same,Velvetleaf plant response rating,[3]; [26],0
same,Cocklebur plant response rating,[4]; [20],0
same,Cocklebur plant response rating,[4]; [21],1
same,"Plant response rating, Cocklebur",[4]; [22],0
same,"Plant response rating, Cocklebur",[4]; [23],0
same,Cocklebur plant response rating,[4]; [24],0
same,Cocklebur plant response rating,[4]; [25],0
same,Cocklebur plant response rating,[4]; [27],0
same,Cocklebur plant response rating,[4]; [26],0
same,Soybean plant response rating,[5]; [20],3
same,Soybean plant response rating,[5]; [21],3
same,"Plant response rating, Soybean",[5]; [22],0
same,"Plant response rating, Soybean",[5]; [23],0
same,Soybean plant response rating,[5]; [24],0
same,Soybean plant response rating,[5]; [25],0
same,Soybean plant response rating,[5]; [26],1
same,Wild oats plant response rating,[6]; [20],0
same,Wild oats plant response rating,[6]; [21],0
same,"Plant response rating, Wild oats",[6]; [22],0
same,"Plant response rating, Wild oats",[6]; [23],0
same,Wild oats plant response rating,[6]; [24],3
same,Wild oats plant response rating,[6]; [25],3
same,Wild oats plant response rating,[6]; [26],0
same,Corn plant response rating,[7]; [20],2
same,Corn plant response rating,[7]; [21],4
same,"Plant response rating, Corn",[7]; [22],0
same,"Plant response rating, Corn",[7]; [23],0
same,Corn plant response rating,[7]; [24],0
same,Corn plant response rating,[7]; [25],2
same,Corn plant response rating,[7]; [27],0
same,Corn plant response rating,[7]; [26],0
same,S. Flatsedge plant response rating,[8]; [17],0
same,S. Flatsedge plant response rating,[8]; [18],0
same,S. Flatsedge plant response rating,[8]; [19],0
same,Blackgrass plant response rating,[9]; [20],7
same,Blackgrass plant response rating,[9]; [21],8
same,"Plant response rating, Blackgrass",[9]; [22],0
same,"Plant response rating, Blackgrass",[9]; [23],3
same,Blackgrass plant response rating,[9]; [24],7
same,Blackgrass plant response rating,[9]; [25],9
same,Blackgrass plant response rating,[9]; [27],2
same,Blackgrass plant response rating,[9]; [26],3
same,Crabgrass plant response rating,[10]; [20],8
same,Crabgrass plant response rating,[10]; [21],9
same,"Plant response rating, Crabgrass",[10]; [22],9
same,"Plant response rating, Crabgrass",[10]; [23],10
same,Crabgrass plant response rating,[10]; [24],10
same,Crabgrass plant response rating,[10]; [25],10
same,Crabgrass plant response rating,[10]; [27],1
same,Crabgrass plant response rating,[10]; [26],2
same,Bedstraw plant response rating,"[11]; Rate 250 g/ha, scale 0 to 10",0
same,Bedstraw plant response rating,"[11]; Rate 500 g/ha, scale of 0 to 10 where 0 is no effect and 10 is complete control",3
same,Bedstraw plant response rating,"[11]; Rate 125 g/ha, scale 0 to 10, 0 is no effect, 10 is complete control",0
same,Rape plant response rating,[12]; [20],0
same,Rape plant response rating,[12]; [21],0
same,"Plant response rating, Rape",[12]; [22],0
same,"Plant response rating, Rape",[12]; [23],0
same,Rape plant response rating,[12]; [24],0
same,Rape plant response rating,[12]; [25],4
same,Rape plant response rating,[12]; [26],0
same,B. signalgrass plant response rating,"[13]; Postemergence, Rate 250 g/ha, scale 0 to 10, 0 no effect, 10 complete control",6
same,B. signalgrass plant response rating,[13]; [21],8
same,"Plant response rating, B. signalgrass",[13]; [22],1
same,"Plant response rating, B. signalgrass",[13]; [23],2
same,B. signalgrass plant response rating,[13]; [24],3
same,B. signalgrass plant response rating,[13]; [25],3
same,B. signalgrass plant response rating,[13]; [27],0
same,B. signalgrass plant response rating,[13]; [26],1
same,Nutsedge plant response rating,[14]; [20],2
same,Nutsedge plant response rating,[14]; [21],6
same,"Plant response rating, Nutsedge",[14]; [22],0
same,"Plant response rating, Nutsedge",[14]; [23],0
same,Nutsedge plant response rating,[14]; [24],0
same,Nutsedge plant response rating,[14]; [25],0
same,Nutsedge plant response rating,[14]; [26],0
same,Redroot pigweed plant response rating,[15]; [20],3
same,Redroot pigweed plant response rating,[15]; [21],3
same,"Plant response rating, Redroot pigweed",[15]; [22],0
same,"Plant response rating, Redroot pigweed",[15]; [23],0
same,Redroot pigweed plant response rating,[15]; [24],2
same,Redroot pigweed plant response rating,[15]; [25],7
same,Redroot pigweed plant response rating,[15]; [26],2
same,Sugarbeets plant response rating,[16]; [20],0
same,Sugarbeets plant response rating,[16]; [21],0
same,"Plant response rating, Sugarbeets",[16]; [22],0
same,"Plant response rating, Sugarbeets",[16]; [23],0
same,Sugarbeets plant response rating,[16]; [24],0
same,Sugarbeets plant response rating,[16]; [25],0
same,Sugarbeets plant response rating,[16]; [26],0
